Measured values: article PMC10287695, “Non-covalent inhibitors of thioredoxin glutathione reductase with schistosomicidal activity in vivo” (Nature Communications, 2023)
“And” between values parts separate entries of the source, which are not always exact repeats. Equal values may be shown once.

Tested on: TGR in newly transformed schistosomula (NTS)
Experiment: TGR inhibition in NTS with TRFS-Green fluorescent probe;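 also: untreated reference is NTS exposed to TRFS-Green probe alone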
Type: cell-based, S. mansoni
Conditions: NTS
Procedure: TGR inhibition in NTS was assessed using a fluorescent probe TRFS-Green (Medchemexpress)[43]. NTS prepared as previously described and cultured in M199 supplemented with 5.5 mM D-glucose, penicillin-streptomycin and 5% heat inactivated fetal bovine serum were incubated at 37 °C in a clear bottom flat well plate in a 5% CO2 incubator overnight. […] NTS were further treated with TRFS-Green (10 µM) for additional 4 h and rinsed with M199 medium to remove residual TRFS-Green. Fluorescence images were obtained using Keyence BZ-X800. The quantification of fluorescence intensity upon the uptake of TRFS-Green by NTS was performed by a fluorescent microplate imager (BioTek Cytation3) (excitation, 438 nm; emission, 538 nm) hourly for 5 h and after 24 h.

SMILES | TGR inhibition visualized by TRFS-Green, Average (1hr, 5 µM) | TGR inhibition visualized by TRFS-Green, single replicate (1hr, 5 µM) | TGR inhibition visualized by TRFS-Green, Average (1hr, 15 µM) | TGR inhibition visualized by TRFS-Green, single replicate (1hr, 15 µM) | TGR inhibition visualized by TRFS-Green, Average (1hr, 30 µM) | TGR inhibition visualized by TRFS-Green, single replicate (1hr, 30 µM) | TGR inhibition visualized by TRFS-Green, Average (2hr, 5 µM) | TGR inhibition visualized by TRFS-Green, single replicate (2hr, 5 µM) | TGR inhibition visualized by TRFS-Green, Average (2hr, 15 µM) | TGR inhibition visualized by TRFS-Green, single replicate (2hr, 15 µM) | TGR inhibition visualized by TRFS-Green, Average (2hr, 30 µM) | TGR inhibition visualized by TRFS-Green, single replicate (2hr, 30 µM) | TGR inhibition visualized by TRFS-Green, Average (3hr, 5 µM) | TGR inhibition visualized by TRFS-Green, single replicate (3hr, 5 µM) | TGR inhibition visualized by TRFS-Green, Average (3hr, 15 µM) | TGR inhibition visualized by TRFS-Green, single replicate (3hr, 15 µM) | TGR inhibition visualized by TRFS-Green, Average (3hr, 30 µM) | TGR inhibition visualized by TRFS-Green, single replicate (3hr, 30 µM) | TGR inhibition visualized by TRFS-Green, Average (4hr, 5 µM) | TGR inhibition visualized by TRFS-Green, single replicate (4hr, 5 µM) | also measured
Cc1oc(C2CCCCC2)nc1CN[C@@H]1C[C@@H]2C[C@H]([C@H]1C)C2(C)C [C4 (8VP121-1)] | 12224.5 | 12022 and 12427 | 11617.5 | 11812 and 11423 | 10356 | 10371 and 10341 | 19189 | 19355 and 19023 | 17814.5 | 17877 and 17752 | 13785 | 13959 and 13611 | 24561 | 24110 and 25012 | 22452 | 22972 and 21932 | 19172 | 19108 and 19236 | 26229 | 26469 and 25989 | TGR inhibition visualized by TRFS-Green, Average (4hr, 15 µM): 23381.5; TGR inhibition visualized by TRFS-Green, single replicate (4hr, 15 µM): 23782 and 22981; TGR inhibition visualized by TRFS-Green, Average (4hr, 30 µM): 19196; TGR inhibition visualized by TRFS-Green, single replicate (4hr, 30 µM): 19157 and 19235; TGR inhibition visualized by TRFS-Green, Average (5hr, 5 µM): 27106; TGR inhibition visualized by TRFS-Green, single replicate (5hr, 5 µM): 27097 and 27115; TGR inhibition visualized by TRFS-Green, Average (5hr, 15 µM): 23897.5; TGR inhibition visualized by TRFS-Green, single replicate (5hr, 15 µM): 23926 and 23869; TGR inhibition visualized by TRFS-Green, Average (5hr, 30 µM): 21898.5; TGR inhibition visualized by TRFS-Green, single replicate (5hr, 30 µM): 21774 and 22023; TGR inhibition visualized by TRFS-Green, Average (24hr, 5 µM): 29485; TGR inhibition visualized by TRFS-Green, single replicate (24hr, 5 µM): 29989 and 28981; TGR inhibition visualized by TRFS-Green, Average (24hr, 15 µM): 27619.5; TGR inhibition visualized by TRFS-Green, single replicate (24hr, 15 µM): 27128 and 28111; TGR inhibition visualized by TRFS-Green, Average (24hr, 30 µM): 25005.5; TGR inhibition visualized by TRFS-Green, single replicate (24hr, 30 µM): 25040 and 24971
C[C@@H]1[C@H]2C[C@@H](C[C@H]1NCc1nc3ccccc3n1C1CCCCCC1)C2(C)C [C8 (9VP173)] | 11538.5 | 11535 and 11542 | 11107.5 | 11094 and 11121 | 7413.5 | 7434 and 7393 | 18549 | 18864 and 18234 | 17855.5 | 17877 and 17834 | 9154.5 | 9096 and 9213 | 28617 | 28491 and 28743 | 26316 | 26509 and 26123 | 12119 | 12004 and 12234 | 29563.5 | 29504 and 29623 | TGR inhibition visualized by TRFS-Green, Average (4hr, 15 µM): 26307.5; TGR inhibition visualized by TRFS-Green, single replicate (4hr, 15 µM): 26632 and 25983; TGR inhibition visualized by TRFS-Green, Average (4hr, 30 µM): 10530.5; TGR inhibition visualized by TRFS-Green, single replicate (4hr, 30 µM): 10830 and 10231; TGR inhibition visualized by TRFS-Green, Average (5hr, 5 µM): 37986; TGR inhibition visualized by TRFS-Green, single replicate (5hr, 5 µM): 37989 and 37983; TGR inhibition visualized by TRFS-Green, Average (5hr, 15 µM): 27117; TGR inhibition visualized by TRFS-Green, single replicate (5hr, 15 µM): 26702 and 27532; TGR inhibition visualized by TRFS-Green, Average (5hr, 30 µM): 12834; TGR inhibition visualized by TRFS-Green, single replicate (5hr, 30 µM): 12855 and 12813; TGR inhibition visualized by TRFS-Green, Average (24hr, 5 µM): 47666; TGR inhibition visualized by TRFS-Green, single replicate (24hr, 5 µM): 46698 and 48634; TGR inhibition visualized by TRFS-Green, Average (24hr, 15 µM): 29478.5; TGR inhibition visualized by TRFS-Green, single replicate (24hr, 15 µM): 29985 and 28972; TGR inhibition visualized by TRFS-Green, Average (24hr, 30 µM): 14283.5; TGR inhibition visualized by TRFS-Green, single replicate (24hr, 30 µM): 14485 and 14082
